Test results taken from PubChem BioAssay AID602464 (Sanford-Burnham Center for Chemical Genomics, 2012).
The source made the active and inactive calls. Rule as the data show it: active = IC50 below about 20 µM; inactive = the rest.

Tested on: Gli-responsive luciferase reporter cells, SUFU pathway antagonism
Experiment: Gli-SUFU pathway antagonists, dose response, cell-based, luciferase luminescence, uHTS hits (AID 602464)

SMILES	IC50
CCCCN(C(C)=O)c1ccc2c(c1)C1CC2CCN1C(=O)OCc1ccccc1 (centres undefined)	6.13 µM
O=S(=O)(c1ccc2c(c1)nc(COc1ccc(Cl)cc1)n2CC1CCCO1)N1CCOCC1 (centres undefined)	3.85 µM
COc1ccc(CN2CCC(C(=O)Nc3ccc(Oc4cccnc4)cc3)CC2)c(C)c1C	12.6 µM
Cc1nnsc1C(=O)NC1CCCc2c1cnn2-c1ccc(F)cc1F (centres undefined)	8.15 µM
CCOc1ccc(-c2nc(CSCC(=O)NCC3CCCO3)c(C)o2)cc1 (centres undefined)	1.47 µM
O=C(Nc1ccncc1)c1ccc(-c2ccccc2)cc1	6.43 µM
CCOc1ccc(-c2nc(CSCC(=O)NC3CC3)c(C)o2)cc1	0.377 µM
Cc1nc2sccn2c1-c1csc(NCc2ccccc2)n1	9.83 µM
COc1ccccc1CCNC(=O)c1cc(-c2ccncc2)nc2ccc(Br)cc12	> 20 µM (inactive)
C=CCNC(=S)/N=c1/ccccn1Cc1ccccc1	11.9 µM
CCCCn1c(SCc2c(C)noc2C)nc2cc(S(N)(=O)=O)ccc21	4.21 µM
COc1ccc(N2CCN(c3ncnc4c3[nH]c3ccccc34)CC2)cc1	2.52 µM
COc1ccccc1-c1c(-c2ccc(O)cc2O)n[nH]c1C(F)(F)F	4.86 µM
O=C(C[C@H]1C/C=C\C[C@H](NC(=O)OCC2c3ccccc3-c3ccccc32)C(=O)OC[C@@H]2CCCN2C1=O)N[C@H](CO)Cc1ccccc1	> 20 µM (inactive)
COc1ccc(NS(=O)(=O)c2cccc(NC(=O)c3ccc(S(=O)(=O)N4CCCCCC4)cc3)c2)cc1	7.51 µM
Cn1c(=O)c2c(nc(NCc3ccco3)n2Cc2ccc(Cl)cc2Cl)n(C)c1=O	0.647 µM
Cc1cc(=O)[nH]c(SCC(=O)/C=C2\N(C)c3ccccc3C2(C)C)n1	5.13 µM
Cc1nn(C)c(C)c1/C=C/C(=O)c1ccc(Cl)cc1Cl	7.53 µM
O=S(=O)(NCc1ccncc1)c1ccc(S(=O)(=O)NCC2CCCO2)cc1 (centres undefined)	11.5 µM
COc1ccccc1-n1c(-c2ccccc2)c[n+]2c1CCc1ccccc1-2	3.63 µM
CCCc1nc(SCC(=O)Nc2nnc(CC)s2)c2c(=O)n(C)c(=O)n(C)c2n1	8.48 µM
O=C(C[C@H]1C/C=C\C[C@@H](NC(=O)OCC2c3ccccc3-c3ccccc32)C(=O)O[C@@H](c2ccccc2)CNC1=O)N[C@H](CO)Cc1ccccc1	7.67 µM
CC1Cc2cc(S(=O)(=O)N3CCC(C(=O)N4CCN(c5ccccc5F)CC4)CC3)ccc2N1C(=O)C1CC1 (centres undefined)	4.27 µM
O=C1N/C(=C\c2ccc(O)cc2)C(O)=C1C=NCc1ccccc1	4.73 µM
CC(=O)c1cccc(NS(=O)(=O)c2ccc(-c3cnc(C4CC4)o3)cc2)c1	8.16 µM

SMILES	IC50
COCCOc1nc2c(c(=O)n(C)c(=O)n2C)n1Cc1cccc(OC)c1	9.46 µM
C=C(C)CSc1nc2sc3c(c2c(=O)n1C1CCCCC1)CCN(C)C3	8.67 µM
CCCc1c(CC)c(=N)c2ccccc2n1C	12.9 µM
O=C(N[C@H]1C/C=C\C[C@@H](CC(=O)N(CCO)Cc2ccccc2)C(=O)N[C@H](Cc2c[nH]c3ccccc23)COC1=O)OCC1c2ccccc2-c2ccccc21	10.4 µM
Cc1ccc(C(=O)N2CCN3C(=O)c4ccccc4C23c2ccc(Cl)cc2)cc1 (centres undefined)	4.95 µM
CN(C)CCn1c2ccccc2c2nc3ccc([N+](=O)[O-])cc3cc21	7.54 µM
CC(=O)c1cn(Cc2ccccc2F)c2ccccc12	8.82 µM
COc1ccc(Cn2c(-c3ccc(Cl)cc3)c[n+]3ccccc23)cc1	7.28 µM
COc1ccccc1CCNC(=O)C(=O)NCCC1CCCCN1S(=O)(=O)c1cccs1 (centres undefined)	8.81 µM
c1ccc(-c2c[n+]3c(n2-c2ccccc2)SCC3)cc1	9.72 µM
CCCCOc1ncnc2c1[nH]c1ccc(F)cc12	4.85 µM
O=C(Cc1ccc(Cl)cc1Cl)Nc1ccncc1	10.3 µM
O=C(Cn1c(-c2ccccc2)c[n+]2ccsc12)c1ccc(Br)cc1	> 20 µM (inactive)
O=C(Cn1cc(C(=O)C2CC2)c2ccccc21)Nc1ccccc1Cl	11.2 µM
Cc1cc(C)c(C(N)=O)c(SCC(=O)c2cc(C)n(-c3cc(C)on3)c2C)n1	4.78 µM
CC(C)Cc1ccc(C(C)C(=O)Nc2cccnc2)cc1 (centres undefined)	13 µM
CN1/C(=C\C=Nc2ccccc2)C(C)(C)c2ccccc21	6 µM
O=C(C1CCCCC1)N1CCN(c2ccnc3cc(Cl)ccc23)CC1	4.29 µM
CCOc1ccc(-n2c(O)c(/C=N/Nc3nc(C)cc(C)n3)c3ccccc3c2=O)cc1	7.13 µM
C[C@@H]1COC(=O)[C@H](NC(=O)OCC2c3ccccc3-c3ccccc32)C/C=C\C[C@@H](CC(=O)N[C@@H](CO)Cc2ccccc2)C(=O)N1	7.8 µM
CCCCOCCCNc1ncnc2c1[nH]c1ccccc12	3.17 µM
O=C(/C=C/c1ccco1)Nc1ccc(-c2nc3ccccc3[nH]2)cc1	1.99 µM
O=C(c1cnc(N2CCN(c3ccccn3)CC2)c2ccccc12)N1CCN(c2cccc(Cl)c2)CC1	11.4 µM
NC(=O)CC(NC(=O)c1ccccc1)c1ccc(N2CCCCCC2)c([N+](=O)[O-])c1 (centres undefined)	> 20 µM (inactive)
Cc1c(C(C)C)c(=O)n(-c2ccc(S(=O)(=O)NCc3ccccc3)cc2)n1C	3.84 µM

SMILES	IC50
Cc1ccc(O)c(NC(=O)COc2cc(C)ccc2C)c1	3.34 µM
O=C(Nc1ccc(C(F)(F)F)cc1)C1CCN(S(=O)(=O)c2ccc(N3CCCC3=O)cc2)CC1	3.22 µM
CCc1cc(C(=O)NC2CCCN(Cc3ccccc3F)C2)n(C)n1 (centres undefined)	13.1 µM
CC(=O)c1ccc(N2CCN(c3ccc(C(F)(F)F)cn3)CC2)cc1	8.99 µM
Cc1nc2cc(N3CCN(C)CC3)c(NC(=O)Cc3ccccc3)cc2c(=O)n1Cc1ccccc1	12.3 µM
COc1ccc(CN(C)C(=O)c2cccc(NC(=O)CC3SC(N4CCCCC4)=NC3=O)c2)c(OC)c1 (centres undefined)	13 µM
CN1/C(=C\C=N\NC(=O)c2ccc(O)cc2)C(C)(C)c2ccccc21	4.34 µM
Cc1ncoc1C(=O)NC1CCCc2c1cnn2-c1ccc(C(C)(C)C)cc1 (centres undefined)	7.46 µM
CC(CC(=O)N1CCN(c2cccc(Cl)c2)CC1)S(=O)(=O)c1ccc2c(c1)NC(=O)CO2 (centres undefined)	6.43 µM
CC1CCN(Cc2c(C(=O)N/N=C/c3ccccc3O)nnn2-c2nonc2N)CC1	5.56 µM
C=CCOc1nc2c(c(=O)n(C)c(=O)n2C)n1Cc1ccc(Cl)cc1	7.97 µM
Cc1ccc(NC(=O)/C=C/c2ccco2)cc1S(=O)(=O)N1CCCCCC1	2.12 µM
C(#Cc1ccccc1)C[N+]1(CC#Cc2ccccc2)CCCC1	5.3 µM
CCOc1ccc(NS(=O)(=O)c2cccc(C(=O)N3CCN(C/C=C/c4ccccc4)CC3)c2)cc1	> 20 µM (inactive)
O=C(NCCNc1ccnc2cc(Cl)ccc12)c1ccccc1F	8.19 µM
CC1Sc2n(c3ccccc3[n+]2C)N=C1c1ccccc1 (centres undefined)	4.71 µM
O=C(c1cc2sccc2n1Cc1ccc(F)cc1)N1CCN(c2nc3ccccc3s2)CC1	4.32 µM
O=C(Nc1nc(-c2cccs2)cs1)c1cccc(S(=O)(=O)N2CCCCCC2)c1	2.28 µM
Cc1cc(NC(=O)CSc2nc3c([nH]c4ccccc43)c(=O)n2-c2ccccc2F)no1	13.8 µM
CCOP(=O)(CCP(=O)(OCC)OCC)OCC.C[CH2][Sn]([Cl])([Cl])[CH2]C	6.24 µM
CC(Sc1nc2ccccc2c(=O)n1C)C(=O)NC1CCCCC1C (centres undefined)	11.5 µM
COc1cc(C(=O)NC2CCN(C)CC2)ccc1Nc1ncc2c(n1)N(Cc1ccccc1)CCC(=O)N2C	1.28 µM
Cn1c(=O)c2c(nc(NCCOc3ccc(C(C)(C)C)cc3)n2C)n(C)c1=O	> 20 µM (inactive)
COc1ccccc1N1CCN(c2ncc(C(=O)N3CCN(c4cccc(Cl)c4)CC3)c3ccccc23)CC1	6.18 µM
Cc1ccc(S(=O)(=O)N2CCN(C(=O)C3CCN(c4ncnc5sc(C)c(C)c45)CC3)CC2)c(C)c1	7.57 µM

SMILES	IC50
O=C(Nc1ccccc1)C1=C[C@@H](C2CCCCC2)C[C@@H](OCCCCO)O1	1.96 µM
CCCN(CCC)CCNC(=O)c1cc2c(=O)n(C)c3ccccc3c2n1C	> 20 µM (inactive)
COc1ccc(C(C(=O)NC2CCCCC2)N(C(=O)CCl)c2ccc(Cl)cc2)cc1 (centres undefined)	4.5 µM
O=[N+]([O-])c1ccc(N2CCN(C(=S)NCc3ccc(Cl)cc3)CC2)cc1	11.9 µM
CCN1C(=O)CCN(C2CCCC2)c2nc(Nc3ccc(C(=O)NC4CCN(C)CC4)cc3OC)ncc21	3.45 µM
Cc1cc(Nc2ccc([N+](=O)[O-])cc2)c2ccccc2n1	> 20 µM (inactive)
CN(CCOc1ccc(Cl)cc1)C(=O)c1cccc(S(=O)(=O)N2CCN(c3ccc(F)cc3)CC2)c1	5.59 µM
CC[C@@H](O)C[C@H]1CCC[C@@]2(C[C@@H]3OC(=O)/C=C/[C@@](C)(O)[C@@H](O)[C@H](C)[C@@H](O)[C@H](OC4CCC(N(C)C)C(C)O4)[C@@H](O)[C@](C)(O)CCCCC/C=C/[C@@H]4CC(C)(C)O[C@@]4(O)C[C@H](O2)[C@H]3C)O1 (some centres undefined)	< 0.00977 µM
Cc1cc(/C=C2/SC(=S)N(c3ccc([N+](=O)[O-])cc3)C2=O)c(C)n1-c1cccnc1	0.663 µM
Cc1cc(C)c(C)c(S(=O)(=O)N2CCN(c3ncnc4ccccc34)CC2)c1C	4.6 µM
CCCn1c(SCC(=O)Nc2nc(-c3ccc(OC)cc3)cs2)nc2c1c(=O)n(C)c(=O)n2C	> 20 µM (inactive)
O=C(N[C@@H]1C/C=C\C[C@@H](CC(=O)N(CCO)Cc2ccccc2)C(=O)NC[C@H](c2ccccc2)OC1=O)OCC1c2ccccc2-c2ccccc21	8.39 µM
CCCCOC(=O)c1[nH]c2c(c1C)C(=O)CC(c1cc(OC)c(OC)c(OC)c1)C2 (centres undefined)	2.22 µM
C#CC[N+](C)(C)CCCCCCCCCCCC	2.51 µM
Cc1ccc(NCC(=O)Nc2cccc(S(=O)(=O)N(C)C)c2)cc1S(=O)(=O)N1CCCCCC1	14.5 µM
CCn1c(C)nc2cc(-c3nnc(-c4c(-c5ccccc5)noc4C)o3)ccc21	7.36 µM
COc1cc2c(c(OC)c1OC)-c1ccc(N(C)CC(OC)OC)c(=O)cc1[C@@H](NC(C)=O)CC2	7.37 µM
O=C(Cc1csc(Nc2nc(=S)[nH]c3ccccc23)n1)NCCCN1CCN(c2ccccc2F)CC1	> 20 µM (inactive)
NC(=O)c1ccccc1OCC(=O)N1CCC(Cc2ccccc2)CC1	5.61 µM
CC(C)(C)OC(=O)N1CCC(c2cc(-c3cccs3)n[nH]2)CC1	> 20 µM (inactive)
Cc1ccc(S(=O)(=O)N2CCN(C(=O)c3ccc(S(=O)(=O)N4CCCC4)cc3)CC2)cc1	> 20 µM (inactive)
Cc1sc2ncnc(NCC3COc4ccccc4O3)c2c1C (centres undefined)	5.17 µM
c1ccc(-c2c[n+]3c(n2-c2ccccc2)CCC3)cc1	> 20 µM (inactive)
CCOC(=O)CSc1c(-c2cccs2)[nH]c2ccccc12	3.69 µM
